Experimental data as given in paper PMC6160570, “Maprotiline Prevents Monocrotaline-Induced Pulmonary Arterial Hypertension in Rats” (Frontiers in Pharmacology, 2018).
Read-outs that look alike come from different tables or passages of the source.

Experiments:
[1] = molecular target: T1, soluble guanylate cyclase (sGC), α1/β1 heterodimer (Homo sapiens, UniProt Q02108+Q02153); test: SPR (Biacore T200, sGC immobilized on CM5 chip), positive control; type: binding; set-up: gene GUCY1B1; full-length recombinant sGC (α1 and β1 subunits coexpressed in Sf9 cells); with sGC α1 subunit (GUCY1A1, Q02108)
T1 sequence (Q02153 1-619): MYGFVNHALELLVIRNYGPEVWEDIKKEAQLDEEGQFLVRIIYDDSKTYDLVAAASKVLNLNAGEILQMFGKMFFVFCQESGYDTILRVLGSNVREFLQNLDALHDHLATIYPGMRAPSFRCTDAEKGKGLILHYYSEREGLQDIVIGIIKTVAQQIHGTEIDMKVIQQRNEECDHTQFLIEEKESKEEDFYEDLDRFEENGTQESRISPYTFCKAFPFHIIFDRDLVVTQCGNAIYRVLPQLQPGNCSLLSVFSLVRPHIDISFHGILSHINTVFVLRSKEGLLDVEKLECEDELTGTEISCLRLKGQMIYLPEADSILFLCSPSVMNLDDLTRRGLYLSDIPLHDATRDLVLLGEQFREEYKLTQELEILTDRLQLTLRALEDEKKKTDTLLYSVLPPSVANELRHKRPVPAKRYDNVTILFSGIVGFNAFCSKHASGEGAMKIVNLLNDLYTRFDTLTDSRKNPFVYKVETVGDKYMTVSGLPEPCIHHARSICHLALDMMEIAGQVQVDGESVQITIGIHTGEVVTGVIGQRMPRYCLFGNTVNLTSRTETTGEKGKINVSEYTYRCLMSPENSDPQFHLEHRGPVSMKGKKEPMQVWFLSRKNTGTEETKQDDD
T1 sequence (Q02108 1-690): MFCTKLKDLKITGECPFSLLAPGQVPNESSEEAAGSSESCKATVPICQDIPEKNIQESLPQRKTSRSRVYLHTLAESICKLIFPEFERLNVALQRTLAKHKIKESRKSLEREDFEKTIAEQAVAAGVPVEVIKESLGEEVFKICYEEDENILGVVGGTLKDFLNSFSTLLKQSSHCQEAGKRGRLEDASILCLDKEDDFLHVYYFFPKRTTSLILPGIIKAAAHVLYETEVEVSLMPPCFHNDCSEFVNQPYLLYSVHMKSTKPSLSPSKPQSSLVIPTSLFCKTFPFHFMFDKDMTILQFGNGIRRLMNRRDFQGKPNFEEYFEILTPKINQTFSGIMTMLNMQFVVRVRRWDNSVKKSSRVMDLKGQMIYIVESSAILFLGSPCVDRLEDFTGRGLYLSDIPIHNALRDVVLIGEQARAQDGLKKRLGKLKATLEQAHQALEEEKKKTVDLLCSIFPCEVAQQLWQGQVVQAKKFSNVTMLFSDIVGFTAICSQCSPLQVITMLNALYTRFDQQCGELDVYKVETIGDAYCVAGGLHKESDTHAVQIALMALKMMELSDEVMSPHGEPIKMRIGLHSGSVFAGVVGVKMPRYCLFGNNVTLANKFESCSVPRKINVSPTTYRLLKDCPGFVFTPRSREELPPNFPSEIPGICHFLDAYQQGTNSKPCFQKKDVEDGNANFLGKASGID

[2] = molecular target: T1, soluble guanylate cyclase (sGC), α1/β1 heterodimer; set-up: gene GUCY1B1

| SMILES | Kd [1] | Kd [2] |
| --- | --- | --- |
| OCc1ccc(-c2nn(Cc3ccccc3)c3ccccc23)o1 [YC-1] | 2180 nM | – |
| CNCCCC12CCC(c3ccccc31)c1ccccc12 [maprotiline] | – | 307 nM |
